# Laboratory results reported in article PMC12668289 (RSC Chemical Biology, 2025).
# Several values for one entry are separate records, joined by “and”; a condition that tells them apart may be missing. Equal entries are not always repeated.
# Key:
# [1] = biological target: T1, Fluc (Photinus pyralis, UniProt P08659); conditions: with Fluc; cited from earlier work
# [2] = tested on: SLR; test: BL emission spectra of luciferase-luciferin reactions; assay type: biochemical, Phrixothrix hirtus; conditions: 100 mM HEPES pH 8.0, 25 °C
# Description: (§1) 1.5 Bioluminescence characterizations
# (§2) Reactions of luciferases, including Photinus pyralis luciferase (Fluc), Phrixothrix hirtus luciferase (SLR), Pyrearinus termitilluminans […]
# (§3) mM D-LH 2 analogues, 3 mM ATP, 6 mM MgCl2, and 10 µM luciferase in 0.2 ml of 100 mM HEPES-NaOH pH 8.0. The bioluminescence (BL) emission characteristics were recorded using a microplate reader in a BL mode (Thermo Scientific, Varioskan, LUX multimode). […]
# (§4) sphere-based multichannel spectrometer with a charge-coupled device (CCD) detector. […]
# [3] = tested on: Pmluc-N230S; test: Steady-state kinetics of luciferase reactions (luminometer); assay type: biochemical, Pyrocoelia miyako; conditions: Pmluc-N230S; for appKm: pH 8.0, 25 °C; for Relative kcat: relative to 2a compound
# Description: as §1, §2, §3
# BL of the
# (§5) The reactions were initiated by mixing 25 µl of premixed solution of luciferases/D-LH 2 analogues with 125 µl of 3 mM ATP and 6 mM MgCl2 in 100 mM HEPES-NaOH (pH 8.0). The light intensity (relative light unit, RLU) during 0-300 sec was then collected to represent the overall luciferase activity which was further used for calculating kinetic parameters from the Michaelis-Menten equation. […]
# [4] = biological target: T1, Fluc; test: Stopped-flow luminometry, single turnover light formation and decay; assay type: biochemical; conditions: Fluc single turnover, 25 °C
# Description: 1.5 Bioluminescence characterizations […]
# One syringe was filled with a solution of 50 µM Fluc, 3 mM ATP, and 6 mM
# in both syringes were mixed by a stopped-flow device and measured the light emission at 25 °C in triplicate. […]
# 2.8 Investigation of bioluminescence kinetics using stopped-flow luminometry
# reactions were investigated using a stopped-flow spectrophotometer (employing a light-off mode for detecting the luminescence). One
# [5] = tested on: Pmluc-WT; test: Steady-state kinetics of luciferase reactions (luminometer); assay type: biochemical, Pyrocoelia miyako; conditions: for appKm: pH 8.0, 25 °C; for Relative kcat: relative to 2a compound
# Description: as §1, §2, §3
# BL of the
# as §5
# [6] = biological target: T1, Fluc; test: BL emission spectra of luciferase-luciferin reactions; assay type: biochemical; conditions: 100 mM HEPES pH 8.0, 25 °C
# Description: as §1, §2, §3, §4
# [7] = tested on: SLR; test: Steady-state kinetics of luciferase reactions (luminometer); assay type: biochemical, Phrixothrix hirtus; conditions: for appKm: pH 8.0, 25 °C; for Relative kcat: relative to 2a compound
# Description: as §1, §2, §3
# BL of the
# as §5
# [8] = biological target: T1, Fluc; test: as above; assay type: biochemical; conditions: for appKm: pH 8.0, 25 °C; for Relative kcat: relative to 2a compound
# Description: as §1, §2, §3
# BL of the
# as §5
# [9] = Absorption and fluorescence spectra of luciferins; assay type: physicochemical; conditions: 100 mM HEPES pH 8.0, 25 °C
# Description: 2.6 Spectra of firefly luciferins
# spectrophotometer (Agilent technologies, Cary 100 UV Vis, Cary Series UV-Vis Spectrophotometer).
# were recorded by a microplate reader (Thermo Scientific, Varioskan, LUX multimode) in fluorescence mode. The reactions of D-LH 2 […]
# Supplementary Table S5. […]
# [e] ND denotes “not detectable”. […]
# [10] = tested on: Pmluc-WT; test: BL emission spectra of luciferase-luciferin reactions; assay type: biochemical, Pyrocoelia miyako; conditions: 100 mM HEPES pH 8.0, 25 °C
# Description: as §1, §2, §3, §4
# [11] = biological target: T1, Fluc; test: biochemical; assay type: binding; conditions: ITC
# [12] = tested on: Eluc; test: Steady-state kinetics of luciferase reactions (luminometer); assay type: biochemical, Pyrearinus termitilluminans; conditions: for appKm: pH 8.0, 25 °C; for Relative kcat: relative to 2a compound
# Description: as §1, §2, §3
# BL of the
# as §5
# [13] = tested on: Eluc; test: BL emission spectra of luciferase-luciferin reactions; assay type: biochemical, Pyrearinus termitilluminans; conditions: 100 mM HEPES pH 8.0, 25 °C
# Description: as §1, §2, §3, §4
# [14] = tested on: Pmluc-N230S; test: as above; assay type: biochemical, Pyrocoelia miyako; conditions: 100 mM HEPES pH 8.0, 25 °C
# Description: mM D-LH 2 analogues, 3 mM ATP, 6 mM MgCl2, and 10 µM luciferase in 0.2 ml of 100 mM HEPES-NaOH pH 8.0. The bioluminescence (BL) emission characteristics were recorded using a microplate reader in a BL mode (Thermo Scientific, Varioskan, LUX multimode). A digital single-lens reflex (DSLR) camera (Nikon D80, CCD sensor) with a 30-second exposure period was used to capture the BL images.
# were selected to investigate their BL emission spectra with luciferases including Fluc, SLR, Pmluc-WT, Pmluc-N230S using an integrating sphere-based multichannel spectrometer with a charge-coupled device (CCD) detector.
# [15] = biological target: Fluc-ApCPP complex (Photinus pyralis, UniProt P08659); test: biochemical; assay type: binding; conditions: ITC
# [16] = tested on: luciferases; conditions: cited from earlier work
# [17] = concentration range tested 0-300
# Sequence of Fluc-ApCPP complex (P08659 whole entry, one chain of several): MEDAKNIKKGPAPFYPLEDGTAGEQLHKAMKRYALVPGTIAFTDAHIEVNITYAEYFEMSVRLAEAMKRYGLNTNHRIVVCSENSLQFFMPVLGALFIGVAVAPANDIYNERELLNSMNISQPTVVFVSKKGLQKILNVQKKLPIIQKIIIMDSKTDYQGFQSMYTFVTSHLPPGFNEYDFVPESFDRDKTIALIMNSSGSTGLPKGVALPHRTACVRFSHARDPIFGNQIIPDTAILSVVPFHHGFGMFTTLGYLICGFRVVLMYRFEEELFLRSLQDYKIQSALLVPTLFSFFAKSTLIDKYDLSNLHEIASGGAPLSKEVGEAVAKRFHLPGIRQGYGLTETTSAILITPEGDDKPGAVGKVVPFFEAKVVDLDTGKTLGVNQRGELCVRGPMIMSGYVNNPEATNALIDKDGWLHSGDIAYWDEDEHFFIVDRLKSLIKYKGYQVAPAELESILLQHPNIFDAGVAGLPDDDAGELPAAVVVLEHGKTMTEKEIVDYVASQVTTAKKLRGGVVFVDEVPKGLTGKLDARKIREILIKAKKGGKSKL
# T1 sequence (P08659 whole entry): as the sequence (P08659 whole entry, one chain of several) above
Compound,Bioluminescence wavelength (BLλ) [2],appKm [3],Relative kcat [3],appKm [5],Relative kcat [5],Bioluminescence wavelength (BLλ) [6],appKm [7],Relative kcat [7],appKm [8],Relative kcat [8],Absorption (λmax) [9],Bioluminescence wavelength (BLλ) [10],appKm [12],Relative kcat [12],Bioluminescence wavelength (BLλ) [13],Bioluminescence wavelength (BLλ) [14],Fluorescence (λem) [9],also measured
CN(C)c1ccc(/C=C/C=C/C2=N[C@@H](C(=O)O)CS2)cc1.Cl [AkaLumine–HCl],,,,,,,,,,,,,,,,,,Quantum yield [1]: 4.0 ± 0.5%
"COc1cc2nc(C3=N[C@@H](C(=O)O)CS3)sc2c(OC)c1O [Compound 2d, 5′,7′-dimethoxy-D-luciferin]",> 630 nm,13.3 µM,0.2,0.2 µM,~ 0.02,625 nm,5.0 µM,0.8,0.2 µM,1.3,412 nm,582 nm,34.7 µM,0.1,596 nm,646 nm,,"Bioluminescence wavelength (BLλ) ([2]; listed as 5′,7′-dimethoxy-D-LH2): 663 nm; Observed rate constant (kobs) Light decay Faster phase [4]: 0.50 ± 0.00 s⁻¹; Observed rate constant (kobs) Light formation [4]: 8.13 ± 0.08 s⁻¹; Substrate inhibition [5, 17]: > 0.8 µM; Substrate inhibition [7, 17]: > 16.6 µM; Substrate inhibition [8, 17]: > 0.8 µM; N site [11]: 0.42; G (free energy of binding) ([11]; 25 °C): -6.18 kcal/mol; H (enthalpy of binding) ([11]; 25 °C): -5.24 kcal/mol; Kd ([11]; Table S9): 30.4 µM"
"Cc1cc(O)c(C)c2sc(C3=N[C@@H](C(=O)O)CS3)nc12 [Compound 2e, 4′,7′-dimethyl-D-LH2]",644 nm,6.6 µM,6.3,10.2 µM,1.2,636 nm,9.0 µM,5.5,7.1 µM,1.0,330 nm,637 nm,19.1 µM,0.2,583 nm,631 nm,560 nm and 523–560 nm,"Kd ([15]; 25 °C, preformed Fluc-ApCPP complex, read-out: Dissociation constant (Kd) Fluc-ApCPP: Luciferin): 864 ± 7 µM; N site ([15]; Fluc-ApCCP): 0.90; G (free energy of binding) ([15]; Fluc-ApCCP, 25 °C): -4.41 kcal/mol; H (enthalpy of binding) ([15]; Fluc-ApCCP, 25 °C): -80.0 kcal/mol"
"Cc1c(O)c2ccccc2c2nc(C3=N[C@@H](C(=O)O)CS3)sc12 [Compound 2f, 7′-methylnaphthol-D-luciferin]",634 nm,,~ 0.01,,,648 nm and > 630 nm,11.6 µM,1.1,2.7 µM,0.1,437 nm,,24.7 µM,0.0,557 nm,,580 nm,
infraluciferin,,,,,,,,,,,,,,,,,,Longest BL wavelength [16]: > 700 nm
